# From ChEMBL document CHEMBL1152256, “Synthesis of Arabino glycosyl triazoles as potential inhibitors of mycobacterial cell wall biosynthesis” (2008)
# Activity calls are given as the source filed them. No cut-off for these calls is given here.
# Test system: Mycobacterium tuberculosis
# Assay: Antimycobacterial activity against Mycobacterium bovis BCG at 1 mg/mL by alamar blue assay
# Type: functional, organism-based
# Settings: variant bovis BCG
row,SMILES,Activity
1,OC[C@H]1O[C@@H](n2cc(-c3ccccc3)nn2)[C@@H](O)[C@@H]1O,inactive

# Test system: Mycobacterium tuberculosis
# Assay: Antimycobacterial activity against Mycobacterium bovis BCG by alamar blue assay
# Type: functional
# Settings: variant bovis BCG
row,SMILES,MIC
1,CCCCCCCCCCCCCCOCc1cn([C@@H]2O[C@H](CO)[C@@H](O)[C@@H]2O)nn1,31 µg/mL
2,NNC(=O)c1ccncc1 [ISONIAZID],0.1 µg/mL
3,CCCCCCc1cn([C@@H]2O[C@H](CO)[C@@H](O)[C@@H]2O)nn1,500 µg/mL
4,CCCCCCCCCCc1cn([C@@H]2O[C@H](CO)[C@@H](O)[C@@H]2O)nn1,250 µg/mL
5,CCCCCCCCc1cn([C@@H]2O[C@H](CO)[C@@H](O)[C@@H]2O)nn1,62 µg/mL
6,CC(C)=CCC/C(C)=C/CC/C(C)=C/COCc1cn([C@@H]2O[C@H](CO)[C@@H](O)[C@@H]2O)nn1,62 µg/mL
